Laboratory results: ChEMBL document CHEMBL1133412, “Rational design, synthesis and structure-activity relationships of antitumor (E)-2-benzylidene-1-tetralones and (E)-2-benzylidene-1-indanones” (Bioorg Med Chem Lett, 2000)

Assays:
Type in all cases: functional, cell-based
WI-38 = test: Cytotoxicity evaluated against WI38 tumor cell lines; Significant activity; conditions: Homo sapiens
NCI-H596 = test: Cytotoxicity evaluated against H596 tumor cell lines; Significant activity; conditions: Homo sapiens
CCRF-CEM = test: Cytotoxicity evaluated against CEM tumor cell lines; Significant activity; conditions: Homo sapiens
HL-60 = test: Cytotoxicity evaluated against HL-60 tumor cell lines; Significant activity; conditions: Homo sapiens
NIH3T3 = test: Cytotoxicity evaluated against NIH3T3 tumor cell lines; Significant activity; conditions: Mus musculus
L1210 = test: Cytotoxicity evaluated against L1210 tumor cell lines; Significant activity; conditions: Mus musculus
A549 = test: Cytotoxicity evaluated against A549 tumor cell lines; significant activity; conditions: Homo sapiens
MOLT-4 = test: Cytotoxicity was evaluated against Molt-4 tumor cell lines; conditions: Homo sapiens
WIL2 = test: Cytotoxicity evaluated against WIL2 tumor cell lines; Significant activity; conditions: Homo sapiens
K562 = test: Cytotoxicity evaluated against K562 tumor cell lines; Significant activity; conditions: Homo sapiens
B16 = test: Cytotoxicity was evaluated against B16 tumor cell lines; Significant activity; conditions: Mus musculus
MCF7 = test: Cytotoxicity evaluated against MCF-7 tumor cell lines; Significant activity; conditions: Homo sapiens
Jurkat = test: In vitro test for antitumor activity against human Jurkat cell line using a formazan dye (MTT) conversion assay.
NCI-H292 = test: Cytotoxicity evaluated against H292 tumor cell lines; Significant activity; conditions: Homo sapiens

| SMILES | Cytotoxicity (WI-38) | Cytotoxicity (NCI-H596) | Cytotoxicity (CCRF-CEM) | Cytotoxicity (HL-60) | Cytotoxicity (NIH3T3) | Cytotoxicity (L1210) | Cytotoxicity (A549) | Cytotoxicity (MOLT-4) | Cytotoxicity (WIL2) | Cytotoxicity (K562) | Cytotoxicity (B16) | Cytotoxicity (MCF7) | IC50 (Jurkat) [µM] | Cytotoxicity (NCI-H292) |
| --- | --- | --- | --- | --- | --- | --- | --- | --- | --- | --- | --- | --- | --- | --- |
| CCOC(=O)COc1c(C)cc(/C=C2\Cc3cc(OC)c(OC)cc3C2=O)cc1C | Significant activity | Significant activity | Significant activity | Significant activity | Significant activity | Significant activity | Significant activity | Significant activity | Significant activity | Significant activity | Significant activity | Significant activity | 2.2 | Significant activity |
| COc1cc2c(cc1OC)C(=O)/C(=C/c1cc([N+](=O)[O-])cc([N+](=O)[O-])c1)CC2 | Significant activity | Significant activity | Significant activity | Significant activity | Significant activity | Significant activity | Significant activity | Significant activity | Significant activity | Significant activity | Significant activity | Significant activity | 2 | Significant activity |
| COc1cc2c(cc1OC)C(=O)/C(=C/c1cc(I)cc(I)c1O)C2 | Significant activity | Significant activity | Significant activity | Significant activity | Significant activity | Significant activity | Significant activity | Significant activity | Significant activity | Significant activity | Significant activity | Significant activity | 2.5 | Significant activity |
| COc1cc2c(cc1OC)C(=O)/C(=C/c1ccc(O)cc1)CC2 | Significant activity | Significant activity | Significant activity | Significant activity | Significant activity | Significant activity | Significant activity | Significant activity | Significant activity | Significant activity | Significant activity | Significant activity | 19 | Significant activity |
| COc1cccc(/C=C2\Cc3cc(OC)c(OC)cc3C2=O)c1 | Significant activity | Significant activity | Significant activity | Significant activity | Significant activity | Significant activity | Significant activity | Significant activity | Significant activity | Significant activity | Significant activity | Significant activity | 12.8 | Significant activity |
| COc1cc2c(cc1O)C/C(=C\c1cc(C)c(O)c(C)c1)C2=O | Significant activity | Significant activity | Significant activity | Significant activity | Significant activity | Significant activity | Significant activity | Significant activity | Significant activity | Significant activity | Significant activity | Significant activity | 0.53 | Significant activity |
| COc1cc2c(c(N)c1OC)C(=O)/C(=C/c1cc(C)c(N)c(C)c1)C2 | Significant activity | Significant activity | Significant activity | Significant activity | Significant activity | Significant activity | Significant activity | Significant activity | Significant activity | Significant activity | Significant activity | Significant activity | 0.0235 | Significant activity |
| COc1ccc(OC)c(/C=C2\CCc3cc(OC)c(OC)cc3C2=O)c1 | Significant activity | Significant activity | Significant activity | Significant activity | Significant activity | Significant activity | Significant activity | Significant activity | Significant activity | Significant activity | Significant activity | Significant activity | 11 | Significant activity |
| COc1cc2c(cc1OC)C(=O)/C(=C/c1cc(Cl)cc(Cl)c1)CC2 | Significant activity | Significant activity | Significant activity | Significant activity | Significant activity | Significant activity | Significant activity | Significant activity | Significant activity | Significant activity | Significant activity | Significant activity | 7 | Significant activity |
| COc1cc2c(cc1OC)C(=O)/C(=C/c1cccc([N+](=O)[O-])c1)CC2 | Significant activity | Significant activity | Significant activity | Significant activity | Significant activity | Significant activity | Significant activity | Significant activity | Significant activity | Significant activity | Significant activity | Significant activity | 9 | Significant activity |
| COc1cc(/C=C2\CCc3cc(OC)c(OC)cc3C2=O)cc(OC)c1 | Significant activity | Significant activity | Significant activity | Significant activity | Significant activity | Significant activity | Significant activity | Significant activity | Significant activity | Significant activity | Significant activity | Significant activity | 5 | Significant activity |
| COc1cc2c(cc1OC)C(=O)/C(=C/c1cccc(C)c1)CC2 | Significant activity | Significant activity | Significant activity | Significant activity | Significant activity | Significant activity | Significant activity | Significant activity | Significant activity | Significant activity | Significant activity | Significant activity | 17 | Significant activity |
| COc1cc2c(cc1OC)C(=O)/C(=C/c1cc(C)cc(C)c1)CC2 | Significant activity | Significant activity | Significant activity | Significant activity | Significant activity | Significant activity | Significant activity | Significant activity | Significant activity | Significant activity | Significant activity | Significant activity | 4 | Significant activity |
| COc1cc2c(cc1OC)C(=O)/C(=C/c1cc([N+](=O)[O-])ccc1O)C2 | Significant activity | Significant activity | Significant activity | Significant activity | Significant activity | Significant activity | Significant activity | Significant activity | Significant activity | Significant activity | Significant activity | Significant activity | 14.5 | Significant activity |
